Assay results published in article PMC7156456, “Modulation of virus-induced NF-κB signaling by NEMO coiled coil mimics” (Nature Communications, 2020).

Target: T1, vFLIP/NEMO interaction (Human herpesvirus 8 type P, UniProt F5HEZ4)
T1 construct: vFLIP (1-178) and NEMO (150-272) were cloned into pET28a vector; made in house; host or cells: E. coli BL21(DE3)
Assay: biochemical
Format: binding, Kaposi's sarcoma herpesvirus (KSHV)
Protocol: For the competition assay, two-fold serial dilution of the different NEMO mimetics were prepared in DMSO then diluted in TR-FRET buffer to 5× and added in triplicates to a 384 low volume well plate. His-MBP vFLIP diluted to 5× in TR-FRET buffer (250 nM) was then added to each well and incubated for 15 min at RT. His-Biotinylated NEMO diluted to 5× in TR-FRET buffer (250 nM) was the added to the mixture followed by addition of 5× or 200 nM) streptavidin-XL665 and (5× or 1 nM) of the antibody-tagged fluorophore anti-MBPK labeled with Europium cryptate). The final concentration of the NEMO mimetics ranged from 0.195 μM to 100 μM. Total assay volume was 20 μL. The plate was incubated for 1 h at RT then read using BioTek Synergy NEO. Titration of non-biotinylated NEMO (0.0195-10 μM) was used as a positive control in every run. The effect of the peptides on vFLIP/NEMO interaction was normalized to the control and expressed as percent inhibition (% of control):
%ofcontrol=FRETCHD−FRETbackground/FRETcontrol−FRETbackground where FRET control is the TR-FRET signal in DMSO treated wells (highest signal) and FRET background is TR-FRET signal in wells containing the highest concentration of non-biotinylated NEMO (10 μM) which provides the lowest signal. Normalized TR-FRET data was plotted using Graphpad Prism.
Supplementary Figure 1. Schematic representation of the Time-resolved Fluorescence Energy Transfer (TR-FRET) binding assay. (a) Complexes of recombinant his-MBP vFLIP, biotinylated His-NEMO, Europium cryptate conjugated anti-MBP antibody and strepavidin XL665 were used to generate proximity for a FRET signal between the donor fluorophore Europium cryptate and the acceptor fluorophore strepavidin XL665. The TR-FRET signal was calculated as a ratiometric measurement of the acceptor fluoroscence emission at 665nm over the donor emission at 620nm multiplied by 10000. […] (d) Size exclusion chromatography of NEMO-vFLIP complex indicating a shift to the left in absorbance at 280nm when NEMO binds specifically to vFLIP. […]

T1 sequence (F5HEZ4 1-178): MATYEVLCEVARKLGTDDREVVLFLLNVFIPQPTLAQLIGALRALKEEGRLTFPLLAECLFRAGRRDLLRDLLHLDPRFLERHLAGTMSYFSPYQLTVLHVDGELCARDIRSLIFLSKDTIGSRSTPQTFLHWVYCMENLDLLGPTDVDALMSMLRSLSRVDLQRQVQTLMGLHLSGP

Structure (SMILES)	Ki [µM]
CC[C@H](C)[C@H](NC(=O)[C@H](C)NC(=O)[C@H](CCC(=O)O)NC(C)=O)C(=O)N[C@@H](CCCNC(=N)N)C(=O)N[C@@H](CCC(N)=O)C(=O)N[C@@H](CC(C)C)C(=O)N[C@@H](Cc1ccc(O)cc1)C(=O)N[C@@H](CCC(=O)O)C(=O)N[C@@H](CCC(=O)O)C(=O)N[C@H](C(=O)N[C@@H](CCCNC(=N)N)C(=O)N[C@@H](CC(N)=O)C(=O)N[C@@H](CC(C)C)C(=O)N[C@@H](CCCCn1cc(COCc2cn(CCCC[C@H](NC(=O)[C@H](CCCNC(=N)N)NC(=O)[C@H](Cc3ccccc3)NC(=O)[C@H](CC(C)C)NC(=O)[C@H](CCCNC(=N)N)NC(=O)[C@H](Cc3c[nH]cn3)NC(=O)[C@@H](NC(=O)[C@H](CCC(=O)O)NC(C)=O)[C@@H](C)CC)C(=O)N[C@H](C(=O)N[C@@H](CC(=O)O)C(=O)N[C@@H](CCC(=O)O)C(=O)N[C@@H](CC(C)C)C(=O)N[C@H](C(=O)N[C@@H](CCCNC(=N)N)C(N)=O)[C@@H](C)CC)[C@@H](C)CC)nn2)nn1)C(N)=O)[C@@H](C)CC [CHD1^NEMO]	> 50
CC[C@H](C)[C@H](NC(=O)[C@H](C)NC(=O)[C@H](CCC(=O)O)NC(C)=O)C(=O)N[C@@H](CCCNC(=N)N)C(=O)N[C@@H](CCC(N)=O)C(=O)N[C@@H](CC(C)C)C(=O)N[C@@H](Cc1c[nH]c2ccccc12)C(=O)N[C@@H](CCC(=O)O)C(=O)N[C@@H](CCC(=O)NC1CCCCC1)C(=O)N[C@H](C(=O)N[C@@H](CCCNC(=N)N)C(=O)N[C@@H](CCCNC(=N)N)C(=O)N[C@@H](CC(C)C)C(=O)N[C@@H](CCCCn1cc(COCc2cn(CCCC[C@H](NC(=O)[C@H](CCCNC(=N)N)NC(=O)[C@H](Cc3ccccc3)NC(=O)[C@H](CC(C)C)NC(=O)[C@H](CCCNC(=N)N)NC(=O)[C@H](C)NC(=O)[C@@H](NC(=O)[C@H](CCC(=O)O)NC(C)=O)[C@@H](C)CC)C(=O)N[C@H](C(=O)N[C@@H](CC(=O)O)C(=O)N[C@@H](CCC(=O)O)C(=O)N[C@@H](CC(C)C)C(=O)N[C@H](C(=O)N[C@@H](CCCNC(=N)N)C(N)=O)[C@@H](C)CC)[C@@H](C)CC)nn2)nn1)C(N)=O)[C@@H](C)CC [CHD4^NEMO]	> 50
